{"source": "paper PMC3428805", "about": "(Journal of Medicinal Chemistry, 2012)", "key": {"[1]": {"tested_on": "K562 cells", "assay": "cells", "type": "cell-based", "details": "Homo sapiens, K562, 72 h"}, "[2]": {"assay": "Mouse microsomal stability", "details": "mouse microsomes, 3 µM"}, "[3]": {"assay": "Human hepatocyte stability", "details": "cryopreserved hepatocytes, 3 µM"}, "[4]": {"assay": "Human plasma protein binding, equilibrium dialysis", "details": "50%"}, "[5]": {"assay": "log P and pKa, potentiometric method"}, "[6]": {"assay": "Human microsomal stability", "details": "human microsomes, 3 µM"}, "[7]": {"assay": "Evaluation of acid stability at pH = 1 by LC-HRMS", "type": "physicochemical", "details": "for hydrolysis / decomposition at pH 1.0: pH 1.0, in words"}, "[8]": {"target": "T1, Eg5 (Homo sapiens, UniProt P52732)", "T1 sequence (P52732 1-368)": "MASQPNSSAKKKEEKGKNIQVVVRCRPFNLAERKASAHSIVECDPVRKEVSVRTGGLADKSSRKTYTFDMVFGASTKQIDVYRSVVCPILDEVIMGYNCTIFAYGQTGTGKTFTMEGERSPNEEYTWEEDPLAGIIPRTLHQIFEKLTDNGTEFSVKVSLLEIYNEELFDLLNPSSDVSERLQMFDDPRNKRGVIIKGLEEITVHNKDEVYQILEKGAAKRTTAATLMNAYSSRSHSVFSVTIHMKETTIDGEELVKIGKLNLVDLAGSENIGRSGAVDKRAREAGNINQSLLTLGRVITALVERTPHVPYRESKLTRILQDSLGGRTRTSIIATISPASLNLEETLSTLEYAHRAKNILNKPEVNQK"}, "[9]": {"assay": "Parallel artificial membrane permeability assay", "type": "in vitro ADME", "details": "passive permeability"}, "[10]": {"assay": "log D7.4", "details": "n-octanol/buffer, pH 7.4"}, "[11]": {"details": "calculated from Ki^app of basal ATPase inhibition"}}, "note": "Like-named read-outs stand apart in the source and are kept apart here.", "data": [{"smiles": "Cc1ccc(C(CCC(N)C(=O)O)(c2ccccc2)c2ccccc2)cc1", "note": "(racemic) [rac-32, 2-Amino-5,5-diphenyl-5-(4-methylphenyl)pentanoic acid]", "values": [{"measurement": "GI50", "setting": "[1]; read-out: K562 cells, GI50, 72 h, Alamar blue", "result": "98 ± 5", "unit": "nM"}]}, {"smiles": "Cc1cccc(C(CC[C@@H](N)C(=O)O)(c2ccccc2)c2ccccc2)c1", "note": "[(R)-29]", "values": [{"measurement": "microsomal stability, Clint, mice", "setting": "[2]", "result": "stable"}, {"measurement": "human hepatocytes, intrinsic clearance", "setting": "[3]", "result": "stable"}, {"measurement": "recovery at 5 µM", "setting": "[4]", "result": 50.1, "unit": "%"}, {"measurement": "pKa", "setting": "[5]; pKa 1", "result": 9.07}, {"measurement": "pKa", "setting": "[5]; pKa 2", "result": 2.55}, {"measurement": "microsomal stability, Clint, human", "setting": "[6]", "result": "stable"}, {"measurement": "GI50", "setting": "[1]; read-out: K562 cells, GI50", "result": "91 ± 9", "unit": "nM"}]}, {"smiles": "Cc1cccc(C(CC[C@H](N)C(=O)O)(c2ccccc2)c2ccccc2)c1", "note": "[(S)-29]", "values": [{"measurement": "microsomal stability, Clint, mice", "setting": "[2]", "result": "stable"}, {"measurement": "human hepatocytes, intrinsic clearance", "setting": "[3]", "result": "stable"}, {"measurement": "recovery at 5 µM", "setting": "[4]", "result": 52.3, "unit": "%"}, {"measurement": "pKa", "setting": "[5]; pKa 1", "result": 9.07}, {"measurement": "pKa", "setting": "[5]; pKa 2", "result": 2.55}, {"measurement": "microsomal stability, Clint, human", "setting": "[6]", "result": "stable"}, {"measurement": "GI50", "setting": "[1]; read-out: K562 cells, GI50", "result": "128 ± 15", "unit": "nM"}]}, {"smiles": "N[C@@H](CSC(c1ccccc1)(c1ccccc1)c1ccccc1)C(=O)O", "note": "[compound 1, S-trityl-L-cysteine, reference compound]", "values": [{"measurement": "t1/2, acid stability", "setting": "[7]; pH 1.0, 0-24 h, LC-HRMS", "result": "stable"}]}, {"smiles": "NCCSC(c1ccccc1)(c1ccccc1)c1ccccc1", "note": "[compound 2, 2-(Tritylsulfanyl)ethanamine]", "values": [{"measurement": "ligand efficiency", "setting": "[8]", "result": 0.39}]}, {"smiles": "NCCOC(c1ccccc1)(c1ccccc1)c1ccccc1", "note": "[compound 6, 2-(Trityloxy)ethanamine]", "values": [{"measurement": "hydrolysis / decomposition at pH 1.0", "setting": "[7]", "result": "decomposed after 16 h"}]}, {"smiles": "N[C@@H](CNC(c1ccccc1)(c1ccccc1)c1ccccc1)C(=O)O", "note": "[compound 7, (2 S)-2-Amino-3-(tritylamino)propanoic acid]", "values": [{"measurement": "hydrolysis / decomposition at pH 1.0", "setting": "[7]", "result": "completely hydrolyzed"}]}, {"smiles": "NCCNC(c1ccccc1)(c1ccccc1)c1ccccc1", "note": "[compound 8, N-Tritylethane-1,2-diamine]", "values": [{"measurement": "hydrolysis / decomposition at pH 1.0", "setting": "[7]", "result": "completely hydrolyzed"}, {"measurement": "ligand efficiency", "setting": "[8]", "result": 0.33}]}, {"smiles": "NCCCC(c1ccccc1)(c1ccccc1)c1ccccc1", "note": "[compound 10, 4,4,4-Triphenylbutan-1-amine]", "values": [{"measurement": "stability at pH 1.0", "setting": "[7]; 5 days at pH 1.0", "result": "stable"}]}, {"smiles": "NCCSC(c1ccccc1)(c1ccccc1)c1cccc(F)c1", "note": "[compound 12, 2-(((3-Fluorophenyl)(diphenyl)methyl)sulfanyl)ethanamine]", "values": [{"measurement": "ligand efficiency", "setting": "[8]; [11]", "result": 0.36}]}, {"smiles": "N[C@@H](CSC(c1ccccc1)(c1ccccc1)c1cccc(Cl)c1)C(=O)O", "note": "[compound 13, (2 R)-2-Amino-3-(((3-chloroxyphenyl)(diphenyl)methyl)sulfanyl)propanoic acid]", "values": [{"measurement": "ligand efficiency", "setting": "[8]; [11]", "result": 0.36}]}, {"smiles": "NCCSC(c1ccccc1)(c1ccccc1)c1cccc(Cl)c1", "note": "[compound 14, 2-(((3-Chlorophenyl)(diphenyl)methyl)sulfanyl)ethanamine]", "values": [{"measurement": "ligand efficiency", "setting": "[8]; [11]", "result": 0.37}]}, {"smiles": "COc1cccc(C(SCCN)(c2ccccc2)c2ccccc2)c1", "note": "[compound 21, 2-(((3-Methoxyphenyl)(diphenyl)methyl)sulfanyl)ethanamine]", "values": [{"measurement": "ligand efficiency", "setting": "[8]; [11]", "result": 0.37}]}, {"smiles": "N[C@@H](CSC(c1ccccc1)(c1ccccc1)c1cccc(O)c1)C(=O)O", "note": "[compound 35, (2 R)-2-Amino-3-(((3-hydroxyphenyl)(diphenyl)methyl)sulfanyl)propanoic acid]", "values": [{"measurement": "PAMPA Papp", "setting": "[9]", "result": "no permeability recorded"}]}, {"smiles": "NC(=O)c1cccc(C(SC[C@H](N)C(=O)O)(c2ccccc2)c2ccccc2)c1", "note": "[compound 41, (R)-2-amino-3-(((3-carbamoylphenyl)diphenylmethyl)sulfanyl)propanoic acid]", "values": [{"measurement": "logD", "setting": "[10]", "result": 1.13}, {"measurement": "PAMPA Papp", "setting": "[9]", "result": "no membrane diffusion detected"}]}, {"smiles": "Cc1ccc(C(=O)N(CCCN)[C@@H](c2nc3cc(Cl)ccc3c(=O)n2Cc2ccccc2)C(C)C)cc1", "note": "[compound 54, ispinesib, reference compound]", "values": [{"measurement": "microsomal stability, Clint, mice", "setting": "[2]", "result": "stable"}, {"measurement": "recovery at 5 µM", "setting": "[4]", "result": 50.6, "unit": "%"}, {"measurement": "microsomal stability, Clint, human", "setting": "[6]", "result": "stable"}]}]}
